Laboratory results: paper PMC10745497, “The Discovery of Indole-2-carboxylic Acid Derivatives as Novel HIV-1 Integrase Strand Transfer Inhibitors” (Molecules, 2023)
Where two headings read alike, the source gives them in different places.

Legend:
[1] = Cytotoxicity assay (MTT) on MT-4 cells; assay type: cell-based, human; settings: human, five days, read-out: CC50, concentration that inhibits the proliferation of MT-4 cells by 50%
Method: (§1) The cytotoxicity of the title compounds was tested through MTT analysis on MT-4 cells. Cells were seeded in 96-well plates with a density of 50,000 cells/well and coincubated with serial diluted compounds (2.5, 5, 10, 20, 40, and 80 μM) at 37 °C for five days. MTT (Sigma) was then added to each well to a final concentration of 0.5 mg/mL and incubated for 2 h. Subsequently, the medium was decanted, and 150 μL of DMSO was added to each well. The absorbance was obtained using a microplate reader at 570 nm, and all measurements were conducted three times under the same condition. Finally, 50% cytotoxicity concentration (CC50) values were calculated by Graphpad Prism 8.

[2] = molecular target: T1, HIV-1 integrase (Human immunodeficiency virus type 1 group M subtype B, UniProt P04585); assay: Strand transfer inhibition assay (HIV-1 integrase assay kit); assay type: biochemical; settings: for IC50: average of three independent experiments; for Improvement of integrase inhibitory activity over the parent compound 3: ratio of IC50s versus compound 3
T1 construct: purchased Abnova
Method: The strand transfer assay was performed using an HIV-1 integrase assay kit (Abnova, Taipei, CN) according to the manufacturer’s instructions. Each sample was dissolved in DMSO and diluted to a final desired concentration (80, 40, 20, 10, 5 μM) with reaction buffer. Briefly, 100 μL of DS DNA solution was added to each well and incubated for 30 min at 37 °C, and the liquid was removed from the wells and washed 3 times with wash buffer. Then, 200 μL of blocking buffer was added to each well and incubated for 30 min in a 37 °C incubator. Followed by the aspiration of the liquid, each well was washed 3 times with reaction buffer, and 100 μL integrase enzyme solution was added to each well and incubated under similar conditions. Sequentially, 50 μL reaction buffer containing different concentrations of samples was added to each well and incubated for 5 min at room temperature. To each well was added 50 μL of TS DNA solution, and the reactions were mixed gently and incubated for 30 min at 37 °C. Then, each well was washed 3 times with wash solution, incubated with 100 μL HRP antibody and incubated for 30 min at 37 °C. After washing the plate under the same conditions, 100 μL TMB peroxidase substrate solution was added to each well and incubated at room temperature for 10 min. To terminate the reaction, 100 μL TMB stop solution was directly added to each well and the absorbance of the sample was determined using a plate reader (ELx800UV, Bio-Tek Instrument Inc., Winooski, VT, USA) at 450 nm.

[3] = tested on: MT-4 cells; assay: Cytotoxicity assay (MTT) on MT-4 cells; assay type: cell-based, human; settings: five days, read-out: CC50, concentration that inhibits the proliferation of MT-4 cells by 50%
Method: as §1

[4] = read-out: IC50, concentration required to inhibit the in vitro strand-transfer step of integrase by 50%
[5] = IC50, concentration required to inhibit the in vitro strand-transfer step of integrase by 50%

Structure (SMILES) | CC50 at 5 days [1] [µM] | IC50 [2, 4] [µM] | melting point [°C] | CC50 [3] [µM] | IC50 [2, 5] [µM] | Improvement of integrase inhibitory activity over the parent compound 3 [2] [fold]
O=C(O)c1[nH]c2cc(Nc3ccc(F)cc3F)ccc2c1COCc1ccc(C(F)(F)F)cc1 [Compound 17b, 6-((2,4-difluorophenyl)amino)-3-(((4-(trifluoromethyl)benzyl)oxy)methyl)-1H-indole-2-carboxylic acid] | > 80 | 0.39 ± 0.09 | 157.3 to 160.5 | – | – | –
O=C(/C=C/c1ccc2c(c1)OCO2)C[C@@]1(O)C(=O)N(Cc2ccc(Cl)cc2)c2ccccc21 [Compound 7] | – | 21.4 ± 0.26 | 147 to 148.2 | – | – | –
Cc1nnc(C(=O)NC(C)(C)c2nc(C(=O)NCc3ccc(F)cc3)c(O)c(=O)n2C)o1 [RAL, raltegravir, reference compound] | > 80 | – | – | – | – | –
COc1ccc(Nc2ccc3c(COCc4ccccc4F)c(C(=O)OC(C)C)[nH]c3c2)cc1F [Compound 19a, Isopropyl 6-((3-fluoro-4-methoxyphenyl)amino)-3-(((2-fluorobenzyl)oxy)methyl)-1H-indole-2-carboxylate] | > 29 | 1.05 ± 0.32 | 141.2 to 144.5 | 37.6 ± 3.64 | – | –
O=C(O)c1[nH]c2cc(Nc3ccc(F)cc3F)ccc2c1COCc1ccccc1F [Compound 20b, 6-((2,4-difluorophenyl)amino)-3-(((2-fluorobenzyl)oxy)methyl)-1H-indole-2-carboxylic acid] | > 80 | 0.64 ± 0.06 | 178.5 to 181.8 | – | – | –
O=C(NCc1ccc(F)cc1)c1coc(CN(Cc2ccc3c(c2)OCO3)Cc2ccc3c(c2)OCO3)n1 [Compound 8] | – | 28.2 ± 1.07 | 171.5 to 176.8 | – | – | –
COc1ccc([C@H]2CC(=O)Nc3c(S(=O)(=O)c4ccccc4)csc32)cc1OC1CCCC1 [Compound 2] | – | 33 ± 1.29 | 113 to 116.7 | – | – | –
CC(C)OC(=O)c1[nH]c2cc(Nc3ccc(F)cc3F)ccc2c1COCc1ccc(C(F)(F)F)cc1 [Compound 16b, Isopropyl 6-((2,4-difluorophenyl)amino)-3-(((4-(trifluoromethyl)benzyl)oxy)methyl)-1H-indole-2-carboxylate] | > 80 | 1.06 ± 0.25 | 149.7 to 152.5 | – | – | –
CC(C)OC(=O)c1[nH]c2cc(Br)ccc2c1COCc1ccc(C(F)(F)F)cc1 [Compound 15, Isopropyl 6-bromo-3-(((4-(trifluoromethyl)benzyl)oxy)methyl)-1H-indole-2-carboxylate] | > 80 | – | – | – | 2.34 ± 0.31 | 5.3
COc1ccc(Nc2ccc3c(COCc4ccccc4F)c(C(=O)O)[nH]c3c2)cc1F [Compound 20a, 6-((3-fluoro-4-methoxyphenyl)amino)-3-(((2-fluorobenzyl)oxy)methyl)-1H-indole-2-carboxylic acid] | > 80 | 0.13 ± 0.02 | 169.9 to 173.7 | – | – | –
Cc1ccc(CNC(=O)CCS(=O)(=O)c2ccc3c(c2)CCN3C(=O)C2CC2)cc1 [Compound 1] | – | 39.1 ± 1.21 | 173.4 to 175.3 | – | – | –
O=C(O)c1[nH]c2cc(Br)ccc2c1COCc1ccccc1F [Compound 21, 6-bromo-3-(((2-fluorobenzyl)oxy)methyl)-1H-indole-2-carboxylic acid] | > 80 | 6.85 ± 0.66 | 174.3 to 178 | – | – | –
CC(C)OC(=O)c1[nH]c2cc(Br)ccc2c1COCc1ccccc1F [Compound 18, Isopropyl 6-bromo-3-(((2-fluorobenzyl)oxy)methyl)-1H-indole-2-carboxylate] | > 29 | – | 154.6 to 158.9 | 45.3 ± 2.73 | 1.92 ± 0.07 | 6.5
COc1ccc(Nc2ccc3c(COCc4ccc(C(F)(F)F)cc4)c(C(=O)O)[nH]c3c2)cc1F [Compound 17a, 6-((3-fluoro-4-methoxyphenyl)amino)-3-(((4-(trifluoromethyl)benzyl)oxy)methyl) -1H-indole-2-carboxylic acid] | > 80 | 0.93 ± 0.07 | 134.8 to 136.3 | – | – | –
COc1ccc(Nc2ccc3c(COCc4ccc(C(F)(F)F)cc4)c(C(=O)OC(C)C)[nH]c3c2)cc1F [Compound 16a, Isopropyl 6-((3-fluoro-4-methoxyphenyl)amino)-3-(((4-(trifluoromethyl)benzyl)oxy)methyl)-1H-indole-2-carboxylate] | > 80 | 3.47 ± 0.82 | 142.3 to 145.6 | – | – | –
O=C(NC1CCCC1)c1ccc2c(=O)n(Cc3ccco3)c(=O)n(Cc3cccc([N+](=O)[O-])c3)c2c1 [Compound 6] | – | 22.6 ± 0.58 | 235.3 to 241.2 | – | – | –
CC(C)OC(=O)c1[nH]c2cc(Nc3ccc(F)cc3F)ccc2c1COCc1ccccc1F [Compound 19b, Isopropyl 6-((2,4-difluorophenyl)amino)-3-(((2-fluorobenzyl)oxy)methyl)-1H-indole-2-carboxylate] | > 29 | 1.7 ± 0.15 | 171.8 to 175.3 | 29.4 ± 1.76 | – | –
Cc1c2c(=O)n(-c3nc4ccccc4s3)n(Cc3ccccc3)c2cc(=O)n1Cc1ccc2c(c1)OCO2 [Compound 10] | – | 22.3 ± 0.43 | 139.9 to 143.6 | – | – | –
Clc1ccc2c(c1)C(c1ccccc1Cl)=NCc1nnc(CSCc3ccccc3)n1-2 [Compound 5] | – | – | 164.7 to 167.8 | – | 47.4 ± 1.45 | –
COc1cc(OC)c([C@H]2c3c(oc4ccc(Cl)cc4c3=O)C(=O)N2c2cc(C)on2)cc1OC [Compound 4] | – | 18.5 ± 1.06 | 271.4 to 279 | – | – | –
COc1ccc2[nH]c(C(=O)O)c(CC(=O)O)c2c1 [Compound 3] | – | 12.41 ± 0.07 | 159.7 to 163.2 | – | – | –
O=c1c2cc(N3CCOCC3)ccc2nc(SCc2cc(=O)n3cc(Cl)ccc3n2)n1Cc1ccc2c(c1)OCO2 [Compound 9] | – | 32.8 ± 0.83 | 239 to 240.1 | – | – | –
